Entries after “also recorded” stand apart in the source; their conditions may differ.
Tests used:
[1] = tested on: draining lymph node CD8+ T cells; test: Mitochondria-related proteomics of draining lymph node CD8+ T cells of treated mice; type: in vivo
Experimental: T cells were prepared by two methods. For in vivo analysis, 13 days after tumor inoculation and 3 days after the start of therapy, draining lymph nodes from 5 mice were pooled, followed by isolation of CD8^+ T cells. From the isolated CD8^+ T cells, three samples each consisting of 1×10^6 cells were prepared and used for analysis. For in vitro experiments, 2×10^5 CD8^+ T cells stimulated with 0.2 μM spermidine for 1 hour were used. For mass spectrometry analysis, a Tandem Mass Tag (TMT) system or a Data Independent Acquisition (DIA) system was used. In the analysis of in vivo CD8^+ T cells (FIG. 3), those proteins which increased by 1.5-fold or more or decreased by 0.6-fold or less were extracted.

CD44 high CD8+ T cells = test: Seahorse OCR, ATP production and SRC in vitro, CD44 high cells; type: cell-based, mice; conditions: SPD 0.2 μM
Experimental: (§1) FIG. 4 CD8^+ T cells were isolated from the spleen of mice without tumor inoculation, and further isolated into CD44^+ (CD44 high) and CD44^− (CD44 low) cell populations. a) CD44 low cells were simulated with CD3/CD28 antibody beads and SPD (0.2 μM). After 30 minutes, 1 hour, 2 hours and 72 hours, OCR was measured with a Seahorse analyzer. b) At the same time, total ATP production and glycolytic pathway-derived or mitochondrial activity-derived ATP production were calculated at 30-minute, 1-hour and 2-hour. c) CD44 low cells (2×10^5 cells) were stimulated with CD3/CD28 antibody beads and SPD (0.2 μM). After 24 hours, cell proliferation was examined by means of 3H uptake. d) Spare respiratory capacity (SRC) was calculated from the OCR measurement after 72 hours in a), and results with and without SPD were compared. e) CD44 low cells were stimulated with CD3/CD28 antibody beads and SPD (0.2 μM). After 24 hours, frequencies between apoptotic and viable cells were calculated by PI and Annexin staining. f-j) CD44 high cells were analyzed under the same conditions and by the same methods as described in a-e) above. As regards statistical analysis, t-test was used for comparison of two groups, and ANOVA was used for comparison of three or more groups. * p<0.05, ** p<0.01, *** p<0.001, **** p<0.0001.
Oxygen consumption rates were measured using an XF96 Extracellular Flux Analyzer (Seahorse Bioscience). CD8^+ T cells (4×10^5) per well were seeded in a determined XF96 plate. The four chemical modulators of mitochondrial oxidative phosphorylation, which came with an XF Cell Mito Stress Test Kit (Seahorse Bioscience), were added to the module sequentially. In brief, basal OCR measurement was performed […] sequential addition of oligomycin, FCCP, and rotenone/antimycin A. SRC and ATP production rates were calculated by the following formulas:
SRC (pmo; 02/min)=OCRmaximal−OCRbasal
mitoATP (pmol ATP/min)=(OCRbasal−OCRoligo)×5.5.

CD44 low CD8+ T cells = test: PI and Annexin apoptosis assay, CD44 low cells; type: cell-based, mice; conditions: in the presence of SPD 0.2 μM
Experimental: as §1, with “[…] All flow cytometry experiments were performed on FACS Canto II (BD Biosciences)” for “As regards statistical analysis, t-test was used for comparison of two groups,”, “analyzed using FlowJo software (FLOWJO, LLC). […]” for “ANOVA was used for comparison of three or more groups. * p<0.05, ** p<0.01, *** p<0.001, **** p<0.0001.”

Structure (SMILES): NCCCCNCCCN [SPD, spermidine]
- levels of electron transport chain related proteins (Cytochrome, NADH dehydrogenase, ATPase) ([1]; combined therapy compared to PD-1 inhibition alone): remarkably increased
- number of mitochondria-related proteins whose level changed significantly ([1]; out of 203 proteins, combined therapy compared to PD-1 inhibition alone): 184
- pathway analysis: proteins associated with oxidative phosphorylation and metabolic pathways such as glycolysis ([1]; proteins increased under combined therapy): occupied top positions
- ATP production via glycolysis (glyco ATP) (CD44 high CD8+ T cells; 1 to 2 hours after stimulation): not enhanced
- ATP production via mitochondria (mito ATP) (CD44 high CD8+ T cells; 1 to 2 hours after stimulation): not enhanced
- ATP production (CD44 high CD8+ T cells; 30 minutes after stimulation): tendency to be enhanced
- mitochondrial oxygen consumption (OCR) (CD44 high CD8+ T cells; 30 minutes after stimulation): increased
- mitochondrial oxygen consumption (OCR) (CD44 high CD8+ T cells; 1 hour and 2 hours after stimulation): decreased
- spare respiratory capacity (SRC) (CD44 high CD8+ T cells; 72 hours): enhanced; also recorded: significantly high
- mitochondrial oxygen consumption (OCR) (CD44 high CD8+ T cells; 72 hours after stimulation): increased again
- apoptotic cells (CD44 low CD8+ T cells): decreased
- viable cells (CD44 low CD8+ T cells): increased; also recorded: significantly high

— patent publication US20220401385A1, “Combination Therapy Based on PD-1 Signaling Inhibitors” (Kyoto University, priority 2019, published 2022)
